Source: patent US8940800B2, “Pharmaceutical compositions with enhanced performance” (Bend Research, Inc., priority 2004, dated 2015)
Read-outs that look alike come from different tables or passages of the source.

How the values were obtained:
[1] = In vivo test of oral powder for constitution in beagle dogs (Example 2); details: male, dog, plasma, Fed, 90 mgA Drug 1 oral OPC
Experimental: Dispersions 1 and 4 were used as oral powders for constitution (OPC) for evaluating the performance of the dispersions in in vivo tests using male beagle dogs. The OPC was dosed as a suspension in a solution containing 0.5 wt % hydroxypropyl cellulose METHOCEL® (from Dow Chemical Co.), and was prepared as follows. First, 7.5 g of METHOCEL® was weighed out and added slowly to approximately 490 ml of water at 90-100° C. to form a METHOCEL® suspension. After all the METHOCEL® was added, 1000 mL of cool/room temperature water was added to the suspension, which was then placed in an ice water bath. When all of the METHOCEL® had dissolved, 2.55 g of polyoxyethylene 20 sorbitan monooleate (TWEEN 80) were added and the mixture stirred until the TWEEN 80 had dissolved, thus forming a stock suspension solution.
To form the OPC, sufficient quantity of the test composition to result in a 90 mgA amount of Drug 1 was accurately weighed and placed into a mortar. (“mgA” refers to mg of active drug.) A 20 mL quantity of the stock suspension solution was added to the mortar and the test composition was mixed with a pestle. Additional METHOCEL® suspension was added gradually with mixing until a total of 400 mL of the stock suspension solution had been added to the mortar. The suspension was then transferred to a flask, thus forming the OPC. This process was repeated for each of Dispersions 1 and 4. […]

[2] = In vivo test of oral powder for constitution in beagle dogs (Example 10); details: male, dog, plasma, Fed, 90 mgA Drug 1 oral OPC
Experimental: Dispersion 17, consisting of 50:50 Drug 1:HPMCA Polymer 10, was dosed in male beagle dogs as an oral powder for constitution (OPC), by suspending the dispersion in a solution containing 0.5 wt % hydroxypropyl cellulose METHOCEL® (from Dow Chemical Co.), as follows. First, 7.5 g of METHOCEL® was weighed out and added slowly to approximately 490 ml of water at 90-100° C. to form a METHOCEL® suspension. After all the METHOCEL® was added, 1000 mL of cool/room temperature water was added to the suspension, which was then placed in an ice water bath. When all of the METHOCEL® had dissolved, 2.55 g of polyoxyethylene 20 sorbitan monooleate (TWEEN 80) were added and the mixture stirred until the TWEEN 80 had dissolved, thus forming a stock suspension solution.
To form the OPC, sufficient quantity of the test composition to result in a 90 mgA amount of Drug 1 was accurately weighed and placed into a mortar. A 20 mL quantity of the stock suspension solution was added to the mortar and the test composition was mixed with a pestle. Additional METHOCEL® suspension was added gradually with mixing until a total of 400 mL of the stock suspension solution had been added to the mortar. The suspension was then transferred to a flask, thus forming the OPC. In addition, an OPC containing 90 mgA of amorphous Drug 1 was prepared using the same procedure.
Six male beagle dogs were each dosed with the OPC. […]

[3] = Microcentrifuge dissolution test in PBS with NaTC/POPC, Drug 6 (Examples 8 and 12); assay type: physicochemical; details: 37° C., 0 to 90 minutes
Experimental: Dispersion 19 was also evaluated in a microcentrifuge dissolution test using the following procedures. For this test, 1.7 mg of Dispersion 19 and 1.27 mg of Crystalline Drug 6 was added to respective microcentrifuge tubes. The tubes were placed in a 37° C. temperature-controlled bath, and 1.8 mL phosphate buffered saline (PBS) at pH 6.5 and 290 mOsm/kg containing 7.3 mM sodium taurocholic acid and 1.4 mM of 1-palmitoyl-2-oleyl-sn-glycero-3-phosphocholine was added to each tube. The concentration of Drug 6 would have been […] if all of the drug had dissolved. The samples were quickly mixed using a vortex mixer for about 60 seconds. The samples were centrifuged at 13,000 G at 37° C. for 1 minute. The resulting supernatant solutions were then sampled and diluted 1:6 (by volume) with methanol and then analyzed by high-performance liquid chromatography (HPLC). The contents of the tubes were mixed on the vortex mixer and allowed to stand undisturbed at 37° C. until the next sample was taken. Samples were collected at 4, 10, 20, 40, 90, and 1200 minutes.
The concentrations of Drug 6 obtained in these samples were used to determine the values of the maximum drug concentration between 0 and 90 minutes (MDC90) and the area under the curve from 0 to 90 minutes (AUC90).
A physical mixture of 75 wt % Drug 6 and 25 wt % HPMCA Polymer 16 was evaluated using the microcentrifuge dissolution test described in Example 8. The concentration of Drug 6 would have been 500 μgA/mL if all of the drug had dissolved. A control consisting of a physical mixture of 75 wt % Drug 6 and 25 wt % HPMC (Dow E3 Prem LV) was tested in the same test.

[4] = In vitro membrane permeation test, Drug 6 (Example 7); assay type: physicochemical; details: Drug 6, feed solution 0.5% NaTC/POPC, permeate 60 wt % decanol in decane
Experimental: Dispersion 19 (75:25 Drug 6:Polymer 17) was evaluated in vitro using the membrane permeation test described for Example 6, except that the permeate solution consisted of 60 wt % decanol in decane. The feed solution was made using MFD solution (0.5% NaTC/POPC). The concentration of Drug 6 in the feed solution would have been 500 μg/mL (354 μgA/mL), if all of the drug had dissolved.
As a control, crystalline Drug 6 alone was used. The concentration of drug added would have been 354 μgA/mL Drug 6, if all of the drug had dissolved.
The maximum flux of drug across the membrane (in units of μg/cm^2-min) was determined from the data by estimating the tangent to the concentration versus time curve at time 0.

physchem = details: pH 6, aqueous buffer
[5] = not told
[6] = Table 16, PBS pH 6.5 with 7.3 mM NaTC/1.4 mM POPC
[7] = Table 20, PBS pH 6.5 with NaTC/POPC

Work on `CCOC(=O)N1c2ccc(C(F)(F)F)cc2[C@@H](N(Cc2cc(C(F)(F)F)cc(C(F)(F)F)c2)C(=O)OC)C[C@H]1CC` [Amorphous Drug 1, [2R,4S]4-[(3,5-bis-trifluoromethyl-benzyl)-methoxycarbonyl-amino]-2-ethyl-6-trifluoromethyl-3,4-dihydro-2H-quinoline-1-carboxylic acid ethyl ester] yielded a Cmax [1] of 190 ± 55 ng/mL, an AUC(0-t) ([1]; read-out: AUC(0-12)) of 640 ± 240 ng·h/mL and a Cmax [2] of 190 ± 55 ng/mL. It also gave an AUC(0-t) ([2]; read-out: AUC(0-12)) of 640 ± 240 ng·h/mL.

With `CCCc1nn(C)c2c(=O)[nH]c(-c3cc(S(=O)(=O)N4CCN(C)CC4)ccc3OCC)nc12.O=C(O)CC(O)(CC(=O)O)C(=O)O` [Crystalline Drug 6, 1-[4-ethoxy-3-(6,7-dihydro-1-methyl-7-oxo-3-propyl-1H-pyrazolo[4,3-d]pyrimidin-5-yl)phenylsulphonyl]-4-methylpiperazine citrate salt] the AUC90 [3, 6] was 7,000 min * μgA/mL, the MDC,90 [3, 6] was 98 μgA/mL and the AUC90 [3, 7] was 7,000 min * μgA/mL. For the same compound, the MDC,90 [3, 7] was 98 μgA/mL and the “Maximum Drug Flux” value [4] was 3.8 μg/cm^2-min.

With `CCCc1nn(C)c2c(=O)[nH]c(-c3cc(S(=O)(=O)N4CCN(C)CC4)ccc3OCC)nc12.O=C(O)CC(O)(CC(=O)O)C(=O)O` [Drug 6, 1-[4-ethoxy-3-(6,7-dihydro-1-methyl-7-oxo-3-propyl-1H-pyrazolo[4,3-d]pyrimidin-5-yl)phenylsulphonyl]-4-methylpiperazine citrate salt] the solubility (physchem) was about 20 µg/mL.

For “[2R,4S]4-[(3,5-bis-trifluoromethyl-benzyl)-methoxycarbonyl-amino]-2-ethyl-6-trifluoromethyl-3,4-dihydro-2H-quinoline-1-carboxylic acid ethyl ester [Crystalline Drug 1]”, the “Maximum Drug Flux” value [5] was 0.16 μg/cm^2-min.
